In publication PMC5564600 (Oncotarget, 2017):

Legend:
Assay in all cases: biochemical
Format in all cases: binding
panel of 442 kinases [1] = target: T1, panel of 442 kinases (Homo sapiens, UniProt O14757); details: CHEK1; for remaining activity at 1 µM: read-out: % of control at 1 µM
T1 construct: purchased Ambit Biosciences (scanMAXX KINOMEscan)
T1 sequence (O14757 1-476): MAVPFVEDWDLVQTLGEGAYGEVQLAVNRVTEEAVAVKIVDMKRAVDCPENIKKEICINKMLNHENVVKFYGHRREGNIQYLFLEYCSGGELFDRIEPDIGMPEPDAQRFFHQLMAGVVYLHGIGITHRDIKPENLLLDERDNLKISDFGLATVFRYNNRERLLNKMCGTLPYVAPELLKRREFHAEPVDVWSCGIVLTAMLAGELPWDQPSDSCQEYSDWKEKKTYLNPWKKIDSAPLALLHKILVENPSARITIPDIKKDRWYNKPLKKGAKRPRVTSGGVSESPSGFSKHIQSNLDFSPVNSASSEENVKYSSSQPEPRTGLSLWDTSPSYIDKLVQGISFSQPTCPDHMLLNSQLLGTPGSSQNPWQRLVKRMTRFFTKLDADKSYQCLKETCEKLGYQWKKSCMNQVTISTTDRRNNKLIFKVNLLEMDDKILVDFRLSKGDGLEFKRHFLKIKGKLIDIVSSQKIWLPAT

panel of 442 kinases [2] = target: T2, panel of 442 kinases (Homo sapiens, UniProt P10721, V559D); details: kinase KIT(V559D); for remaining activity at 1 µM: read-out: % of control at 1 µM
T2 construct: purchased Ambit Biosciences (scanMAXX KINOMEscan)

panel of 442 kinases [3] = target: T3, panel of 442 kinases (Homo sapiens, UniProt O15111); details: kinase IKK-alpha; for remaining activity at 1 µM: read-out: % of control at 1 µM
T3 construct: purchased Ambit Biosciences (scanMAXX KINOMEscan)
T3 sequence (O15111 1-745): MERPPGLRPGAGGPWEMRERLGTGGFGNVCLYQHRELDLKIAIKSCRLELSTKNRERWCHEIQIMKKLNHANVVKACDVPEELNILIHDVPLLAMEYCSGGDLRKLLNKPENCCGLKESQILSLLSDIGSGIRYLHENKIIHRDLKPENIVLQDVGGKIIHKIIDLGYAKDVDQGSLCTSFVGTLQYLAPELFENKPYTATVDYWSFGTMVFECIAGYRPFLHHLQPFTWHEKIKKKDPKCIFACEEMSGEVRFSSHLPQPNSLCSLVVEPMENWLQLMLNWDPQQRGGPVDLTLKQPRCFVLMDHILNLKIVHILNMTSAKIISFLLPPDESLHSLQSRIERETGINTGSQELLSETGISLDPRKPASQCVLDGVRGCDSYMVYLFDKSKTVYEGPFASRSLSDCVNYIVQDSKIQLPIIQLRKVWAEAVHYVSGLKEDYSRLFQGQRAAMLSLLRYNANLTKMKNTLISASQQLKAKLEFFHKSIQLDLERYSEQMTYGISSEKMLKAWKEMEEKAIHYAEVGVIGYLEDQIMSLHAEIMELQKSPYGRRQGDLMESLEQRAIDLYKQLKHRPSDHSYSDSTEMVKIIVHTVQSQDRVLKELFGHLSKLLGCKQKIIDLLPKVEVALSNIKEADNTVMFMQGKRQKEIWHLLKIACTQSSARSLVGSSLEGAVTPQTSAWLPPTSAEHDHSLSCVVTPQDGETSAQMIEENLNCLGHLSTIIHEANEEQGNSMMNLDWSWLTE

panel of 442 kinases [4] = target: T4, panel of 442 kinases (Homo sapiens, UniProt Q8NFD2); details: ANKK1; for remaining activity at 1 µM: read-out: % of control at 1 µM
T4 construct: purchased Ambit Biosciences (scanMAXX KINOMEscan)
T4 sequence (Q8NFD2 1-765): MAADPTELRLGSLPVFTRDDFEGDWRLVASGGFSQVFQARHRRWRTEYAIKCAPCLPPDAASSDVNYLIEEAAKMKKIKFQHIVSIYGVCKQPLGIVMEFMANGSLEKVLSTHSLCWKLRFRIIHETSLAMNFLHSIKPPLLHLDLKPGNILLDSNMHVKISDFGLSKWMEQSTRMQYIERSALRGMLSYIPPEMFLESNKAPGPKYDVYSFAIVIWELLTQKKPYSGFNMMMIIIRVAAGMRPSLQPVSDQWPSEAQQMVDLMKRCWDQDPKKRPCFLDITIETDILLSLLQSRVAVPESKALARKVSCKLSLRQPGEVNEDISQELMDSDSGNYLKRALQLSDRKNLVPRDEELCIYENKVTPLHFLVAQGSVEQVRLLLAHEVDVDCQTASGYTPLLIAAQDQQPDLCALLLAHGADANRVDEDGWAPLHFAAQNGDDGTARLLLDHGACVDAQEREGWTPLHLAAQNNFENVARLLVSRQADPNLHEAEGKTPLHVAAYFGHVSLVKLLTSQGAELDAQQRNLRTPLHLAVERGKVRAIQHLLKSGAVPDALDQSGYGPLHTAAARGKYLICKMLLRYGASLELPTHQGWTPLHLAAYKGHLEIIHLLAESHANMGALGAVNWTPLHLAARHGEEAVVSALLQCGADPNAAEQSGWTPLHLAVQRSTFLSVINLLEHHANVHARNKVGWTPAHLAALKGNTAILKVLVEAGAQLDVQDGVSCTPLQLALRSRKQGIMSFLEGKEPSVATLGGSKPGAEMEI

panel of 442 kinases [5] = target: T5, panel of 442 kinases (Homo sapiens, UniProt Q16513); details: kinase PKN2; for remaining activity at 1 µM: read-out: PKN2 (% of control at 1 µM)
T5 construct: purchased Ambit Biosciences (scanMAXX KINOMEscan)

panel of 442 kinases [6] = target: T6, panel of 442 kinases (Homo sapiens, UniProt Q92772); details: CDKL2; for remaining activity at 1 µM: read-out: % of control at 1 µM
T6 construct: purchased Ambit Biosciences (scanMAXX KINOMEscan)
T6 sequence (Q92772 1-493): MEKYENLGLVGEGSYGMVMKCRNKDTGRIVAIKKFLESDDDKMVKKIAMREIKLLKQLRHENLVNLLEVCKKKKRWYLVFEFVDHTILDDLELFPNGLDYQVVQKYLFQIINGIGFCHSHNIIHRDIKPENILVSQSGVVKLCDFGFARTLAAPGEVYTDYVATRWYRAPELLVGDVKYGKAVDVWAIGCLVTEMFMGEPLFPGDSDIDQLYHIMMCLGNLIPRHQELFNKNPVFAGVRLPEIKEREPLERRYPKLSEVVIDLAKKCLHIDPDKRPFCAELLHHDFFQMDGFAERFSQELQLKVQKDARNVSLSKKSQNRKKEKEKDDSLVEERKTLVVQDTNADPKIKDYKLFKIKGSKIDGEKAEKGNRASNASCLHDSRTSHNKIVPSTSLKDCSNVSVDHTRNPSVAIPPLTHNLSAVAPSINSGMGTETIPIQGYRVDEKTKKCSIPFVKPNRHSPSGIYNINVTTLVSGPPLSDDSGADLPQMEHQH

panel of 442 kinases [7] = target: T7, panel of 442 kinases (Homo sapiens, UniProt P00533); details: EGFR; for remaining activity at 1 µM: read-out: % of control at 1 µM
T7 construct: purchased Ambit Biosciences (scanMAXX KINOMEscan)

[8] = 10 µM, read-out: % of control at 10 µM

T5 sequence (Q16513 whole entry): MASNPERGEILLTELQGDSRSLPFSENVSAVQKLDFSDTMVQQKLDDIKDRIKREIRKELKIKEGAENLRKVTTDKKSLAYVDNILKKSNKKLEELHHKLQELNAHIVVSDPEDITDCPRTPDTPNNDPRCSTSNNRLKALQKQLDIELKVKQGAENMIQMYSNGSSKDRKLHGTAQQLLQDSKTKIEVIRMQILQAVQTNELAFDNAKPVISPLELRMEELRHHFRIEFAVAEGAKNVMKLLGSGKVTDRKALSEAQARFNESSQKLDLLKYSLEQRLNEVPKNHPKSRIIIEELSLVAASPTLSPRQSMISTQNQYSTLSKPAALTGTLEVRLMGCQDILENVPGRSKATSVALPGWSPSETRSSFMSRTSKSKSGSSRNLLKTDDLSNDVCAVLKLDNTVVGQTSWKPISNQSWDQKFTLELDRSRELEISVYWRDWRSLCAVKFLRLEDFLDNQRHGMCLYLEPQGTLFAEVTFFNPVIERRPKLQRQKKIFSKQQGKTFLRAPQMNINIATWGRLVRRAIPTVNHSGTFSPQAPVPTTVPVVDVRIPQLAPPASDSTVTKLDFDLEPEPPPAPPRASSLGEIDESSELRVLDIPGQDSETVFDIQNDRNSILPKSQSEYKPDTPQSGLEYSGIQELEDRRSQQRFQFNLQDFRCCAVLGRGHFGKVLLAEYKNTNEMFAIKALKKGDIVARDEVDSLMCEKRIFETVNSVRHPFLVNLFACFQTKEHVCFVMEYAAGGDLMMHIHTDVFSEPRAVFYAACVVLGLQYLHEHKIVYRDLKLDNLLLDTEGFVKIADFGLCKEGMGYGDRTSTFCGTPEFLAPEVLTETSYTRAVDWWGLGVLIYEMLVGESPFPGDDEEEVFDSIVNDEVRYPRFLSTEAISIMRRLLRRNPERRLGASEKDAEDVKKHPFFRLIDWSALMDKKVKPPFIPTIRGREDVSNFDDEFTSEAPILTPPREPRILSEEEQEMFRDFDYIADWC
T2 sequence (P10721 26-976 V559D): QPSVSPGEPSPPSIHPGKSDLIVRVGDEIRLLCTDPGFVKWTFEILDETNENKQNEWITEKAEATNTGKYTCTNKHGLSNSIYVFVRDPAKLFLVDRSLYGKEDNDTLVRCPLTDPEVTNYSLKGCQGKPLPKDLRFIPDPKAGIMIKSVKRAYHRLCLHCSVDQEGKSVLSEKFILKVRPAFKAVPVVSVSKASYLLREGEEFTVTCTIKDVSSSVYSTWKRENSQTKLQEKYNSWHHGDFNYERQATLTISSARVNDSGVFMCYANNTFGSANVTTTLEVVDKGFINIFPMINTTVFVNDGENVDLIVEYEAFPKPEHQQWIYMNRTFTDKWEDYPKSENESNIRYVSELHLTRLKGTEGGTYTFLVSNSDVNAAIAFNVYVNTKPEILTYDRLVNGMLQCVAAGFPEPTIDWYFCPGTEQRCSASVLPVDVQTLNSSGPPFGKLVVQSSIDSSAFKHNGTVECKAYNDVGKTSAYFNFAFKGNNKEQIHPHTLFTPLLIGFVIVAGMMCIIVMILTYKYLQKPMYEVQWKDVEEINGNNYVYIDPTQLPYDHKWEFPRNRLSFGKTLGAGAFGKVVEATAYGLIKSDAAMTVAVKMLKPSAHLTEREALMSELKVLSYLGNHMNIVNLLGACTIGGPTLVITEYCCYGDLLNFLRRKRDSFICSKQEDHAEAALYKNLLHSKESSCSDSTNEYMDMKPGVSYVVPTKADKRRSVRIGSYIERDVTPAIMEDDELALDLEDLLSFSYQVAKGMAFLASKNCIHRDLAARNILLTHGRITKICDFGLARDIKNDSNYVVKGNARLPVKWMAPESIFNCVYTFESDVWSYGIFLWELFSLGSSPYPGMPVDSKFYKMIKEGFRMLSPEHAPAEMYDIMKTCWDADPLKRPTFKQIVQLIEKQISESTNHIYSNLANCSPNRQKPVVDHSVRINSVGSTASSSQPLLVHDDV
T7 sequence (P00533 25-1210): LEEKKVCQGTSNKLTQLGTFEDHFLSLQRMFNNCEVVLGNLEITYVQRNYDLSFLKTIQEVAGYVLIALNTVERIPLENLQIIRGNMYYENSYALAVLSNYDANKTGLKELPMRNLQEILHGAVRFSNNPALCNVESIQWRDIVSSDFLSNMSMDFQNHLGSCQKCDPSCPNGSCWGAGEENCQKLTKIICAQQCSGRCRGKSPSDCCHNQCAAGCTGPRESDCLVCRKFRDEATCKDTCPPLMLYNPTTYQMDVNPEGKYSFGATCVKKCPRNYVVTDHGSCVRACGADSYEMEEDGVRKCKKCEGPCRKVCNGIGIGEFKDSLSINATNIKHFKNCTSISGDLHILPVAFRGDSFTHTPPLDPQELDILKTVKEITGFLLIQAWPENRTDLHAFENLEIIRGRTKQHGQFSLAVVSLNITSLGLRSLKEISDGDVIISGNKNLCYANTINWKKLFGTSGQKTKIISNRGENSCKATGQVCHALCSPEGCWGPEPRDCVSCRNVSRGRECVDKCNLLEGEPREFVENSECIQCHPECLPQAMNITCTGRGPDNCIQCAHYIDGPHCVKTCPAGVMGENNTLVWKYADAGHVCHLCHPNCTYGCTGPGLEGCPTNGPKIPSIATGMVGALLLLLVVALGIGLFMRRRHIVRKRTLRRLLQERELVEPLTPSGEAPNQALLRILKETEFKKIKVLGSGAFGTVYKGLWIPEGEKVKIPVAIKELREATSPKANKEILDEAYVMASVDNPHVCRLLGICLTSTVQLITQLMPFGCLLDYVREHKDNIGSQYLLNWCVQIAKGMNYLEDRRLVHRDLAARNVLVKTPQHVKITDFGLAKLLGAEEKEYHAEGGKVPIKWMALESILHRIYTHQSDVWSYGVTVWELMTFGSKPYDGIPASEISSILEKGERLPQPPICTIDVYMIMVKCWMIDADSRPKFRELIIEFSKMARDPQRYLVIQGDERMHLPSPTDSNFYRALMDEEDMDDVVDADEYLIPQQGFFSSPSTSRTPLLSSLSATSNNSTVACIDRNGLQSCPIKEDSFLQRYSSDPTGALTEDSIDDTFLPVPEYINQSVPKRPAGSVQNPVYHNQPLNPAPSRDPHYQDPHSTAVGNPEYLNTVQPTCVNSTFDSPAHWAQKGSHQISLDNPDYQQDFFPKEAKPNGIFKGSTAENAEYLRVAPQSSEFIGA

Nc1cc(C(F)(F)F)c(-c2cc(N3CCOCC3)nc(N3CCOCC3)n2)cn1 [Buparlisib]
remaining activity at 1 µM (panel of 442 kinases [1]): 79%
remaining activity at 10 µM (panel of 442 kinases [1]; [8]): 82%
remaining activity at 1 µM (panel of 442 kinases [2]): 100%
remaining activity at 10 µM (panel of 442 kinases [2]; [8]): 66%
remaining activity at 1 µM (panel of 442 kinases [3]): 59%
remaining activity at 10 µM (panel of 442 kinases [3]; [8]): 59%
remaining activity at 1 µM (panel of 442 kinases [4]): 91%
remaining activity at 10 µM (panel of 442 kinases [4]; [8]): 94%
remaining activity at 1 µM (panel of 442 kinases [5]): 83%
remaining activity at 10 µM (panel of 442 kinases [5]; 10 µM, read-out: PKN2 (% of control at 10 µM)): 100%
remaining activity at 1 µM (panel of 442 kinases [6]): 66%
remaining activity at 10 µM (panel of 442 kinases [6]; [8]): 100%
remaining activity at 1 µM (panel of 442 kinases [7]): 83%
remaining activity at 10 µM (panel of 442 kinases [7]; [8]): 100%

Cn1c(=O)n(-c2ccc(C(C)(C)C#N)cc2)c2c3cc(-c4cnc5ccccc5c4)ccc3ncc21 [Dactolisib, 2-methyl-2-[4-(3-methyl-2-oxo-8-quinolin-3-yl-2,3-dihydroimidazo[4,5-c]quinolin-1-yl)-phenyl] propionitrile]
remaining activity at 1 µM (panel of 442 kinases [1]): 100%
remaining activity at 1 µM (panel of 442 kinases [2]): 65%
remaining activity at 1 µM (panel of 442 kinases [3]): 63%
remaining activity at 1 µM (panel of 442 kinases [4]): 100%
remaining activity at 1 µM (panel of 442 kinases [5]): 92%
remaining activity at 1 µM (panel of 442 kinases [6]): 26%
remaining activity at 1 µM (panel of 442 kinases [7]): 80%

COc1ncc(-c2ccc3nccc(-c4ccnnc4)c3c2)cc1NS(=O)(=O)c1ccc(F)cc1F [Omipalisib]
remaining activity at 1 µM (panel of 442 kinases [1]): 100%
remaining activity at 1 µM (panel of 442 kinases [2]): 96%
remaining activity at 1 µM (panel of 442 kinases [3]): 100%
remaining activity at 1 µM (panel of 442 kinases [4]): 100%
remaining activity at 1 µM (panel of 442 kinases [5]): 100%
remaining activity at 1 µM (panel of 442 kinases [6]): 90%
remaining activity at 1 µM (panel of 442 kinases [7]): 86%

FC(F)c1nc2ccccc2n1-c1nc(N2CCOCC2)nc(N2CCOCC2)n1 [ZSTK474, 2-(difluoromethyl)-1-[4,6-di(4-morpholinyl)-1,3,5-triazin-2-yl]-1H-benzimidazole]
remaining activity at 1 µM (panel of 442 kinases [1]): 92%
remaining activity at 1 µM (panel of 442 kinases [2]): 84%
remaining activity at 1 µM (panel of 442 kinases [3]): 73%
remaining activity at 1 µM (panel of 442 kinases [4]): 100%
remaining activity at 1 µM (panel of 442 kinases [5]): 100%
remaining activity at 1 µM (panel of 442 kinases [6]): 100%
remaining activity at 1 µM (panel of 442 kinases [7]): 94%
